What was measured:
[1] = vitamin D exposure over 10 years; cohort of 12,388 persons; cited from earlier work
Covid [2] = assay: One year investigation at Prestige Home Health, vitamin D protocol, Covid positive tests; assay type: in vivo, human; conditions: target vitamin D level 60 ng/ml
Description: In order to test some of the concepts disclosed herein, a one year investigation was conducted to gather data where there was an objective of bringing participants to a target level of vitamin D of 60 ng/ml treated at home by staff at Prestige Home Health in Starr county, Texas and also residents of nursing homes. Data on patients and staff was provided by Yolanda Garza registered nurse (RN)/Director of Nursing (DON) on Sep. 19, 2022. For patients that followed the disclosed protocol, zero tested positive for Covid as compared to fifty-three patients who tested positive for Covid who were not on the protocol. During the same one year period, four staff members on the disclosed protocol tested positive for Covid compared to 83 staff members who tested positive who were not on the disclosed protocol. Prestige Home Health also provided portable humidifiers in homes of many of the patients treated at home. Little or no sensors were provided to determine the level of humidification. Retama Manor also tried to make indoor humidify viral safe inside their facility by including humidifiers again without sensors. Though the capacity of their humidifiers was subpar, indoor humidity in all likelihood contributed to the facility's remarkable overall success. Only one patient at Retama Manor whose Vitamin D level was in the viral safe range tested positive during the 15 month study period.

Covid [3] = assay: Retama Manor nursing home 15 month study, vitamin D protocol, Covid positive tests; assay type: in vivo, human
[4] = test system: acute respiratory illness; conditions: higher doses of vitamin D; patients studied for a year; cited from earlier work

vitamin D
lowering of the risk of dementia [1]: 40% | patients on the disclosed protocol who tested positive for Covid (Covid [2]; 53 positive patients not on protocol): zero | staff members on the disclosed protocol who tested positive for Covid (Covid [2]; 83 positive staff not on protocol): four | Covid cases per staff member, less than the other two nursing homes (Covid [3]; Retama Manor versus the other two nursing homes in Rio Grande City): 45% | patients on vitamin D protocol / in viral safe range who tested positive for Covid (Covid [3]; Retama Manor, 15 month (six quarter) study period): one | Dr. Mussett's patients who tested positive for Covid (Covid [3]; their patients at all three nursing homes in Rio Grande City, study period): two | reduction in acute respiratory illness [4]: 40%
